From ChEMBL document CHEMBL1151306, “Inhibitory activity of unsaturated fatty acids and anacardic acids toward soluble tissue factor-factor VIIa complex” (J Nat Prod, 1998) come the findings set out here.

For data set [1], the target named is T1, Trypsin (Sus scrofa, UniProt P00761).
Description: (§1) Inhibition of pig pancreatic trypsin after 15 mins
Data set [2] has as its target Coagulation factor VII/tissue factor (Homo sapiens, UniProt P08709).
Description: Inhibition of amidolytic activity of human tissue factor/human factor 7a
The nature of a further data set: physchem. The conditions noted are these: octanol/water.
Data set [3] deals with T1, Trypsin. The source holds these as a separate data set.
Description: as §1
For data set [4] the following is noted: octanol/water.
Description: (§2) Octanol-water partition coefficient, log P of the compound

Where “and” joins values, the source holds several entries; their conditions need not be identical. Equal values may be shown once. Where only a bound is given, the exact number is not on record here.

Broadly, the IC50 is the concentration that gives 50% inhibition. A low value points to greater potency in that assay. By logP is commonly meant a log measure of how a compound divides between an organic and an aqueous phase. The low end stands for lower lipophilicity, the high end for higher lipophilicity.

Sequence of Coagulation factor VII/tissue factor (P08709 61-212 limits assumed): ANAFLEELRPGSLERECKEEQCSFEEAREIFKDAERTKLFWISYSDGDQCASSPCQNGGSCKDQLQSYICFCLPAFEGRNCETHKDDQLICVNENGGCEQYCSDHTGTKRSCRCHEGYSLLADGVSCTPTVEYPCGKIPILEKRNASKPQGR
Sequence of Coagulation factor VII/tissue factor (P08709 213-466 limits assumed): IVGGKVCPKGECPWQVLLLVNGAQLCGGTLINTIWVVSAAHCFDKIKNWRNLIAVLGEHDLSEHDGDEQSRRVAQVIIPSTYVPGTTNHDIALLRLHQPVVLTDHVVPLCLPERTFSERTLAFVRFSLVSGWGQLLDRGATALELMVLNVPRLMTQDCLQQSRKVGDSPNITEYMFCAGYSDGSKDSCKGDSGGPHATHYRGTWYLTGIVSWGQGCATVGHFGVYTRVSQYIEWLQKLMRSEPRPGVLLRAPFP
Sequence of Coagulation factor VII/tissue factor (P13726 33-295 partner limits assumed): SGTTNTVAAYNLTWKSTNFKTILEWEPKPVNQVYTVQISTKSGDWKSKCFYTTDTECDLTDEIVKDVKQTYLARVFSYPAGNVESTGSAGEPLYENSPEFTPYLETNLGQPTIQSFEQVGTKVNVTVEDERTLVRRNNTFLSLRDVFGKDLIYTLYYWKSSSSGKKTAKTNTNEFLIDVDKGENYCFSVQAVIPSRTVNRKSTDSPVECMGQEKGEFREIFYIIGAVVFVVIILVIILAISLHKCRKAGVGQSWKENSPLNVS
T1 sequence (P00761 whole entry): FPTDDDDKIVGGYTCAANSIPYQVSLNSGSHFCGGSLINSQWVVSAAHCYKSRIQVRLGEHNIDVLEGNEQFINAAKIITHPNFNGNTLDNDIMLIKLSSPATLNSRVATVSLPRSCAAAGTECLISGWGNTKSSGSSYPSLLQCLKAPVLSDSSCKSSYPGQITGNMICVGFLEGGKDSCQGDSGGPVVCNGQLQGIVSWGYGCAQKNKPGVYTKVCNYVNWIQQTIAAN
Description for physchem: as §2

For the compound `CC/C=C\C/C=C\C/C=C\CCCCCCCCCC(=O)O`, the IC50 at Trypsin [1] was above 200 µM; in data set [2] it was 100 µM. This compound also displayed a lipophilicity (logP) in the data set “physchem” (logP) of 3.3.
As to `CCCCC/C=C\C/C=C\CCCCCCCCCC(=O)O`, the values for the 50% inhibitory concentration (IC50) (on Trypsin [1]; in data set [2]) were above 200 µM and 52 µM, respectively. Further, the logP in the data set “physchem” (logP) came to 2.41.
For `CCCCC/C=C\C/C=C\CCCCCCCc1cccc(O)c1C(=O)O` the same measures were above 200 µM, 33 µM and 3.72.
As for `CCCCC/C=C\C/C=C\C/C=C\C/C=C\CCCC(=O)O` [ARACHIDONIC ACID], the IC50 is above 200 µM against Trypsin [1] and 105 µM in data set [2]. Besides, the logP in “physchem” was determined as 2.9.
On to `CCCCC/C=C\C/C=C\C/C=C\CCCCCCC(=O)O` [DIHOMO-GAMMA-LINOLENIC ACID], for which the IC50 against Trypsin [1] is above 200 µM; in data set [2], 75 µM and 30 µM; against Trypsin [3], above 200 µM. Besides, the logP in data set [4] worked out at 3.28; in “physchem” (logP), 3.5.
On to `CCCCC/C=C\C/C=C\C/C=C\CCCCC(=O)O` [GAMOLENIC ACID], for which the half-inhibitory concentration (IC50) against Trypsin [1] was above 200 µM; in data set [2], 30 µM. The compound further had a logP in the data set “physchem” (logP) of 2.55.
The matching figures for `CCCCCC/C=C\CCCCCCCc1cccc(O)c1C(=O)O` [GINGKOLIC ACID]: above 200 µM, 32 µM and 3.99.
For `CC/C=C\C/C=C\C/C=C\C/C=C\C/C=C\CCCC(=O)O` [ICOSAPENT] the same measures were above 200 µM, 78 µM and 2.48.
For `CCCCC/C=C\C/C=C\CCCCCCCC(=O)O` [LINOLEIC ACID] the same measures were above 200 µM, 41 µM and 3.
Turning to `CC/C=C\C/C=C\C/C=C\CCCCCCCC(=O)O` [LINOLENIC ACID], the IC50 on Trypsin [1] is above 200 µM; in data set [2] it was 30 µM. The logP in “physchem” (logP) came to 2.51.
With `CCCC/C=C\CCCCCCCC(=O)O` [MYRISTOLEIC ACID], the figures for the concentration for half-maximal inhibition (IC50) (against Trypsin [1]; in data set [2]) were above 200 µM and 66 µM, respectively.
For `CCCCCCCC/C=C\CCCCCCCC(=O)O` [OLEIC ACID], the figures for the IC50 (at Trypsin [1]; in data set [2]) were above 200 µM and 80 µM, respectively. Further, in “physchem” (logP), the logP was 3.54.
For `CCCCCC/C=C\CCCCCCCC(=O)O` [PALMITOLEIC ACID] the same measures were above 200 µM, 120 µM and 2.73.
